In doi:10.1101/2024.08.19.608619, “Discovery of potent SARS-CoV-2 nsp3 macrodomain inhibitors uncovers lack of translation to cellular antiviral response” (bioRxiv, 2024):
In brackets after ≈: the same amount, converted by molar mass. Several values for one entry are separate records, joined by “and”; a condition that tells them apart may be missing. Equal entries are not always repeated. Where two headings read alike, the source gives them in different places.

Assays:
iPSC pneumocytes = iPSC pneumocytes cytotoxicity; format: cell-based; settings: protocol iPSC pneumocytes cytotoxicity
Excerpt: Supplement media-1.zip/Cytotoxicity.csv, table | column: cc10; cc50; perc_min_measured; perc_max_measured

HeLa-ACE2 cells = settings: protocol HeLa-ACE2 cytotoxicity
LogD = settings: pH 7.4; In vitro LogD
[1] = Hepatic microsomal stability, MLM; format: in vitro ADME; settings: In vitro mouse liver microsomal stability; for perc_remaining_no_cofactor: no cofactor
in vitro = settings: human, hela-ace2 cells, 50.0
[2] = Hepatic microsomal stability, HLM; format: in vitro ADME, human; settings: In vitro human liver microsomal stability; for perc_remaining_no_cofactor: no cofactor
[3] = In vitro kinetic solubility; settings: In vitro kinetic solubility, ph 7.4
[4] = tested on: SARS-CoV-2, isolate USA-WA1/2020; assay: microbe, parasite or virus in culture; format: cell-based; settings: HeLa-ACE2 SARS-CoV-2 antiviral effect without P-gp inhibitor
[5] = Permeability Papp (AB) MDR1/MDCKII; settings: In vitro MDR1-MDCKII permeability, mean; for papp_a_to_b_mean: A to B; for perc_recovery_a_to_b_mean: recovery A to B
SARS-CoV-2 = assay: Antiviral effect in iPSC-derived pneumocyte system; format: cell-based; settings: iPSC pneumocytes SARS-CoV-2 antiviral effect
SARS-CoV-2 nsp3-mac1 [6] = biological target: T1, SARS-CoV-2 nsp3-mac1 (Severe acute respiratory syndrome coronavirus 2, UniProt P0DTD1); assay: biochemical; settings: for hill_slope: TR-FRET dose response curve fit; for perc_max_measured: highest measured response; for perc_min_measured: lowest measured response
SARS-CoV-2 nsp3-mac1 [7] = biological target: T1, SARS-CoV-2 nsp3-mac1; assay: biochemical; format: biochemical; settings: for inhibition at 50 µM / inhibition at 100 µM: read-out: perc_inhibition_mean; for perc_inhibition_mean: SARS-CoV-2 nsp3 macrodomain TR-FRET single point, concentration 50.0 uM
SARS-CoV-2 nsp3-mac1 [8] = biological target: T1, SARS-CoV-2 nsp3-mac1; assay: biochemical; set-up: SARS-CoV-2 nsp3 macrodomain TR-FRET single point, per cent inhibition, n=2
[9] = highest measured response of the dose series
[10] = lowest measured response of the dose series
[11] = maximum measured response of dose series
[12] = minimum measured response of dose series
[13] = IC50, nsp3-mac1 activity, Figures 1-3 and text
[14] = TR-FRET dose response, supplement, read-out: ic50

In the case of `Cn1ncc(-c2cc3c(N[C@@H](c4ccc5c(c4)OCCO5)C(C)(C)C)ncnc3[nH]2)c1C#N` (racemic) [ASAP-0008484], the CC50 (iPSC pneumocytes) is reported as 48.6 µM, the cc10 (iPSC pneumocytes) is reported as 41.767 µM and the perc_max_measured (iPSC pneumocytes; [9]) is reported as 107.062%. The perc_min_measured (iPSC pneumocytes; [10]) was 63.039%, the CC50 (HeLa-ACE2 cells) was greater than 20 µM and the cc10 (HeLa-ACE2 cells) was greater than 20.0 µM. For the same compound, the perc_max_measured (HeLa-ACE2 cells; [9]) was 117.871% and 98.808%, the perc_min_measured (HeLa-ACE2 cells; [10]) was 61.501% and 55.999% and the logd (LogD) was 2.9. It also gave a clint [1] of 199.0 µL/min/mg, a perc_remaining [1] of 4.0% and a t_half [1] of 8.4 min. The perc_remaining_no_cofactor [1] was 100.0%, the CC50 at 24 h (in vitro) was greater than 20 µM and the clint [2] was 85.0 µL/min/mg. For the same compound, the perc_remaining [2] was 22.0%, the t_half [2] was 19.6 min and the perc_remaining_no_cofactor [2] was 109.0%. For the same compound, the solubility_mean [3] was 25 µM (≈ 11.1 µg/mL), the perc_max_measured [4, 11] was 91.316% and 93.387% and the perc_min_measured [4, 12] was 1.9% and 1.413%. For the same compound, the EC50 ([4]; read-out: ec50) was 1050 nM and 1120 nM, the EC90 ([4]; read-out: ec90) was 2120 nM and 3300 nM and the papp_a_to_b_mean [5] was 2.79 ×10⁻⁶ cm/s. It also gave a perc_recovery_a_to_b_mean [5] of 39.4%, an EC50 (SARS-CoV-2) of 7.67 µM and an EC90 (SARS-CoV-2) of 13.4 µM. For the same compound, the perc_max_measured (SARS-CoV-2; [11]) was 131.986% and the perc_min_measured (SARS-CoV-2; [12]) was 2.165%.

`Cc1[nH]c2ncnc(NC(=O)C3CC=CC3)c2c1C` [ASAP-0000025] showed an IC50 (SARS-CoV-2 nsp3-mac1 [6]; [13]) of 42 µM and an inhibition at 50 µM (SARS-CoV-2 nsp3-mac1 [7]) of 73.1%.

With `CC(C)C(Nc1ncnc2n[nH]cc12)c1cnn(C)c1` (stereo not drawn) [ASAP-0000031] the IC50 (SARS-CoV-2 nsp3-mac1 [6]; [13]) was 43 µM and the inhibition at 50 µM (SARS-CoV-2 nsp3-mac1 [7]) was 63.5%.

Compound `O=C(Nc1ccccc1)Nc1ccc(C(=O)NC2c3cccc(O)c3CC2C(=O)O)cc1` (stereo not drawn) [ASAP-0000132] has a logd (LogD) of 0.12, a clint [1] of 2.0 µL/min/mg and a perc_remaining [1] of 111.0%. For the same compound, the t_half [1] was 1066.4 min, the perc_remaining_no_cofactor [1] was 99.0% and the inhibition at 50 µM (SARS-CoV-2 nsp3-mac1 [8]; read-out: perc_inhibition_mean, batch_name=ASAP-0000132-001) was 99.9%. The clint [2] was 9.0 µL/min/mg, the perc_remaining [2] was 123.0% and the t_half [2] was 187.2 min. The perc_remaining_no_cofactor [2] was 96.0%, the solubility_mean [3] was 319 µM (≈ 138 µg/mL) and the hill_slope (SARS-CoV-2 nsp3-mac1 [6]) was 1.06. For the same compound, the perc_max_measured (SARS-CoV-2 nsp3-mac1 [6]; TR-FRET dose response) was 99.438%, the perc_min_measured (SARS-CoV-2 nsp3-mac1 [6]; TR-FRET dose response) was -1.931% and the pic50 (SARS-CoV-2 nsp3-mac1 [6]; TR-FRET dose response, supplement) was 5.991. The IC50 (SARS-CoV-2 nsp3-mac1 [6]; [14]) was 1.02 µM, the papp_a_to_b_mean [5] was 0.7 ×10⁻⁶ cm/s and the perc_recovery_a_to_b_mean [5] was 91.0%. For the same compound, the perc_inhibition_mean (SARS-CoV-2 nsp3-mac1 [7]) was 99.903%.

Compound `O=C(NCc1cc2n(n1)CCCC2)c1cc2cncnc2[nH]1` [ASAP-0000134] has an inhibition at 50 µM (SARS-CoV-2 nsp3-mac1 [8]; read-out: perc_inhibition_mean, batch_name=ASAP-0000134-001) of 4.17%, a perc_max_measured (SARS-CoV-2 nsp3-mac1 [6]; TR-FRET dose response) of 2.258% and a perc_min_measured (SARS-CoV-2 nsp3-mac1 [6]; TR-FRET dose response) of -11.392%. It also gave an IC50 (SARS-CoV-2 nsp3-mac1 [6]; [14]) greater than 124 µM and a perc_inhibition_mean (SARS-CoV-2 nsp3-mac1 [7]) of 4.173%.

`O=C(c1cccc(Br)c1)N1CCC(c2ccn3ncc(C(=O)N4CCCCC4)c3c2)CC1` [ASAP-0000191] gave an inhibition at 50 µM (SARS-CoV-2 nsp3-mac1 [8]; read-out: perc_inhibition_mean, batch_name=ASAP-0000191-001) of 32.1%, a hill_slope (SARS-CoV-2 nsp3-mac1 [6]) of 0.907 and a perc_max_measured (SARS-CoV-2 nsp3-mac1 [6]; TR-FRET dose response) of 41.392%. For the same compound, the perc_min_measured (SARS-CoV-2 nsp3-mac1 [6]; TR-FRET dose response) was -0.981%, the IC50 (SARS-CoV-2 nsp3-mac1 [6]; [14]) was greater than 124 µM and the perc_inhibition_mean (SARS-CoV-2 nsp3-mac1 [7]) was 32.136%.

`O=C(OCc1cccc(Cl)n1)c1ncnc2[nH]ccc12` [ASAP-0000193] gave an inhibition at 50 µM (SARS-CoV-2 nsp3-mac1 [8]; read-out: perc_inhibition_mean, batch_name=ASAP-0000193-001) of 11.4%, a hill_slope (SARS-CoV-2 nsp3-mac1 [6]) of 1.685 and a perc_max_measured (SARS-CoV-2 nsp3-mac1 [6]; TR-FRET dose response) of 38.614%. It also gave a perc_min_measured (SARS-CoV-2 nsp3-mac1 [6]; TR-FRET dose response) of -4.676%, an IC50 (SARS-CoV-2 nsp3-mac1 [6]; [14]) greater than 124 µM and a perc_inhibition_mean (SARS-CoV-2 nsp3-mac1 [7]) of 11.426%.

Work on `OC[C@@H](Nc1ncnc2[nH]c(I)cc12)c1ccccc1` [ASAP-0000197] yielded an inhibition at 50 µM (SARS-CoV-2 nsp3-mac1 [8]; read-out: perc_inhibition_mean, batch_name=ASAP-0000197-001) of 26.1%, a hill_slope (SARS-CoV-2 nsp3-mac1 [6]) of 1.082 and a perc_max_measured (SARS-CoV-2 nsp3-mac1 [6]; TR-FRET dose response) of 42.06%. It also gave a perc_min_measured (SARS-CoV-2 nsp3-mac1 [6]; TR-FRET dose response) of -3.652%, an IC50 (SARS-CoV-2 nsp3-mac1 [6]; [14]) greater than 124 µM and a perc_inhibition_mean (SARS-CoV-2 nsp3-mac1 [7]) of 26.134%.

`O=C(O)c1cscc1C(=O)N1CCC(c2ccn3ncc(C(=O)N4CCCCC4)c3c2)CC1` [ASAP-0000259] gave an IC50 (SARS-CoV-2 nsp3-mac1 [6]; [13]) of 44 µM, an inhibition at 50 µM (SARS-CoV-2 nsp3-mac1 [7]) of 47.7% and an inhibition at 100 µM (SARS-CoV-2 nsp3-mac1 [7]) of 66.7%.

`Cc1[nH]c2ncnc(NC(=O)c3ccncc3Cl)c2c1C` [ASAP-0000266] gave an IC50 (SARS-CoV-2 nsp3-mac1 [6]; [13]) of 25 µM, an inhibition at 50 µM (SARS-CoV-2 nsp3-mac1 [7]) of 69.6% and an inhibition at 100 µM (SARS-CoV-2 nsp3-mac1 [7]) of 85.6%.
